Measurements published in patent publication US10683297B2 (Sunshine Lake Pharma Co., Ltd., priority 2017, dated 2020).

What was measured:
Type in all cases: biochemical
Settings in all cases: [γ-33P-ATP] 10 μM or KM values; 40 minutes at room temperature
JAK2 (h) = molecular target: T1, JAK2 (h) (Homo sapiens, UniProt O60674); assay: JAK2 (h) kinase assay
T1 construct: purchased Millipore UK Ltd (assays performed there as a service)
Method in brief: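 Radiometric filter-binding assay run at Millipore: human JAK2 with 100 μM peptide substrate in 8 mM MOPS pH 7.0, 0.2 mM EDTA, 10 mM MgAcetate, [γ-^33P]ATP at 10 μM or KM, 40 min at room temperature. Acid-stopped, spotted on P30 filtermat, scintillation counted; IC50 from 10-point ½-log curve.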

Aurora-A (h) = molecular target: T2, Aurora-A (h) (Homo sapiens, UniProt O14965); assay: Aurora-A (h) kinase assay
T2 construct: purchased Millipore UK Ltd (assays performed there as a service)
T2 sequence (O14965 1-403): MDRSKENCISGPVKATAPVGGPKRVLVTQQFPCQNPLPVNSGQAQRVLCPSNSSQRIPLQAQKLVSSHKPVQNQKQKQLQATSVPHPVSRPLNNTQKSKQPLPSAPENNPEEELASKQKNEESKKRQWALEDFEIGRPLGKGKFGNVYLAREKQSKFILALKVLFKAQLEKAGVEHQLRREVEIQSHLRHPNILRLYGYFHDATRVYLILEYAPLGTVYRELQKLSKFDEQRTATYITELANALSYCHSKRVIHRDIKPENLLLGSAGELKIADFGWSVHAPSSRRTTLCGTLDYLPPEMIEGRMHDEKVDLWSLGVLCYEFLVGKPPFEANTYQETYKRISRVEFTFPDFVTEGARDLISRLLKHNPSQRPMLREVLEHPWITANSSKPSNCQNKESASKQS
Procedure: (§1) The above assay procedure can be used to determine the IC50 for inhibition and/or the inhibition constant, Ki. […] The IC50 value is estimated by preparing a 10 point curve using a ½ log dilution series (for example, a typical curve may be prepared using the following compound concentrations: 3 μM, 1 μM, 0.3 μM, 0.1 μM, 0.03 μM, 0.01 μM, 0.003 μM, 0.001 μM, 0.0003 μM and 0 μM).
Aurora-A (h) is incubated with 8 mM MOPS pH 7.0, 0.2 mM EDTA, 200 μM LRRASLG (Kemptide), 10 mM MgAcetate and [γ-^33P-ATP] […] The reaction is initiated by the addition of the MgATP mix. After incubation for 40 minutes at room temperature, the reaction is stopped by the addition of 3% phosphoric acid solution. 10 μL of the reaction is then spotted onto a P30 filtermat and washed three times for 5 minutes in 75 mM phosphoric acid and once in methanol prior to drying and scintillation counting.
(§2) The kinase assays described herein were performed at Millipore UK Ltd, Dundee Technology Park, Dundee DD2 1SW, UK.

Aurora-B (h) = molecular target: T3, Aurora-B (h) (Homo sapiens, UniProt Q96GD4); assay: Aurora-B (h) kinase assay
T3 construct: purchased Millipore UK Ltd (assays performed there as a service)
Procedure: as §1
Aurora-B (h) is incubated with 8 mM MOPS pH 7.0, 0.2 mM EDTA, 30 μM […], 10 mM MgAcetate and [γ-^33PATP] […] The reaction is initiated by the addition of the MgATP mix. After incubation for 40 minutes at room temperature, the reaction is stopped by the addition of a 3% phosphoric acid solution. 10 μL of the reaction is then spotted onto a P30 filtermat and washed three times for 5 minutes in 75 mM phosphoric acid and once in methanol prior to drying and scintillation counting.
as §2

T3 sequence (Q96GD4 whole entry): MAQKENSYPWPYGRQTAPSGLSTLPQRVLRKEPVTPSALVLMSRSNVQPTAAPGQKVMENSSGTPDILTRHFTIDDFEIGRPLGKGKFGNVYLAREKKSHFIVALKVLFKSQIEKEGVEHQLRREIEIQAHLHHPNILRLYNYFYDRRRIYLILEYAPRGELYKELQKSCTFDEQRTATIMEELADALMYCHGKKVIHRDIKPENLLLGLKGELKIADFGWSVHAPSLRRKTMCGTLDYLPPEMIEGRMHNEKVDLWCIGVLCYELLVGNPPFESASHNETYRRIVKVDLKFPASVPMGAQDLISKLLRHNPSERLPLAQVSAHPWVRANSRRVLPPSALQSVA
T1 sequence (O60674 whole entry): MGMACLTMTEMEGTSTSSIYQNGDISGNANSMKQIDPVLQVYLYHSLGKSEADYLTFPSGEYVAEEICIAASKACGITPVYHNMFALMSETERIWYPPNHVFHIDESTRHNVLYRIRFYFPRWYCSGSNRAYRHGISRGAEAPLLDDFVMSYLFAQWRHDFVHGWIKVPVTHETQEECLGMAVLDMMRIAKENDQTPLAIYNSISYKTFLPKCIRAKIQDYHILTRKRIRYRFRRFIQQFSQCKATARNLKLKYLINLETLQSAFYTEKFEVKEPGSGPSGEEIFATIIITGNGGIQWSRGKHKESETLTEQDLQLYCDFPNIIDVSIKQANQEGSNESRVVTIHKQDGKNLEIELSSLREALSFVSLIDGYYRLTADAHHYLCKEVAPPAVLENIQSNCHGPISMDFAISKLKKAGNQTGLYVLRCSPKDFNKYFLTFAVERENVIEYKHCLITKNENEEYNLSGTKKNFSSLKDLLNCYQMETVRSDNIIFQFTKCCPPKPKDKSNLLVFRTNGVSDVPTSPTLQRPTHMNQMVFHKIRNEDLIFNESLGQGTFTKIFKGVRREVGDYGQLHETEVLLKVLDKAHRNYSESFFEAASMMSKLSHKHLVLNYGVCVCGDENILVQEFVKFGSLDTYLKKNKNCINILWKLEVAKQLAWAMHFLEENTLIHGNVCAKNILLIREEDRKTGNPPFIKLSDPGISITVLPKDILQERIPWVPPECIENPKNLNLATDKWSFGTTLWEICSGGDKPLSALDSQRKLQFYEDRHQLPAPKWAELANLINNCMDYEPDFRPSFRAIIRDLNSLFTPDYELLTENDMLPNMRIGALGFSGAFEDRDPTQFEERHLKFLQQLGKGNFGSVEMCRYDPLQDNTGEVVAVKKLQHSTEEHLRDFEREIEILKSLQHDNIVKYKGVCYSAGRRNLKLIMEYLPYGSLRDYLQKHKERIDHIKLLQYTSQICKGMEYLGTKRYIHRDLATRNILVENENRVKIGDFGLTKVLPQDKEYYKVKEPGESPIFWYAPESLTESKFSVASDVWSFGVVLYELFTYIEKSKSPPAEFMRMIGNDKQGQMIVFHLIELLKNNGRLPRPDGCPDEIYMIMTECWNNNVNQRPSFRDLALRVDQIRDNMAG

IC50 (JAK2 (h)) [nM]	IC50 (Aurora-A (h)) [nM]	IC50 (Aurora-B (h)) [nM]	Compound
17	699	132	CC(C)(O)Cc1nc2cc(Nc3ncc(Cl)c(NC4CCN(c5ccc(C#N)nn5)CC4)n3)ccn2n1 [Example 77, 6-(4-((5-chloro-2-((2-(2-hydroxy-2-methylpropyl)-[1,2,4]triazolo[1,5-a]pyridin-7-yl)amino)pyrimidin-4-yl)amino)piperidin-1-yl)pyridazine-3-carbonitrile]
1	113	50	CC(O)Cn1cnc2cc(Nc3ncc(Cl)c(NC4CCN(c5ccc(C#N)cn5)CC4)n3)ccc21 (stereo not drawn) [Example 61, 6-(4-((5-chloro-2-((1-(2-hydroxypropyl)-1H-benzo[d]imidazol-5-yl)amino)pyrimidin-4-yl)amino)piperidin-1-yl)nicotinonitrile]
14	> 300	200	CC(C)(O)c1nc2cc(Nc3ncc(Cl)c(NC4CCN(c5ccc(C#N)nn5)CC4)n3)ccn2n1 [Example 55, 6-(4-((5-chloro-2-((2-(2-hydroxypropan-2-yl)-[1,2,4]triazolo[1,5-a]pyridin-7-yl)amino)pyrimidin-4-yl)amino)piperidin-1-yl)pyridazine-3-carbonitrile]
39	987	793	CC(C)(O)Cc1nc2ccc(Nc3ncc(Cl)c(NC4CCN(c5ccc(C#N)cn5)CC4)n3)cn2n1 [Example 67, 6-(4-((5-chloro-2-((2-(2-hydroxy-2-methylpropyl)-[1,2,4]triazolo[1,5-a]pyridin-6-yl)amino)pyrimidin-4-yl)amino)piperidin-1-yl)nicotinonitrile]
2	40	45	CC(C)(O)Cn1nnc2cc(Nc3ncc(Cl)c(NC4CCN(c5ccc(C#N)cn5)CC4)n3)ccc21 [Example 69, 6-(4-((5-chloro-2-((1-(2-hydroxy-2-methylpropyl)-1H-benzo[d][1,2,3]triazol-5-yl)amino)pyrimidin-4-yl)amino)piperidin-1-yl)nicotinonitrile]
